Experimental data: article PMC4336331, “Novel Receptor-Derived Cyclopeptides to Treat Heart Failure Caused by Anti-β1-Adrenoceptor Antibodies in a Human-Analogous Rat Model” (PLoS ONE, 2015)
Peptide text beside a SMILES is read from it.

Key:
anti-β1EC2-antibodies = assay: Free anti-β1EC2-titers by ELISA, prevention-study; assay type: in vivo, Lewis/CrlBR rats; settings: 1.0 mg/kg i.v. monthly
Experimental: For treatment groups (a), (b), and (f) in total n = 38 non-immunised rats were injected with 0.9% NaCl and treated in parallel (“negative” controls). Blood was taken at regular intervals; rat-IgG was prepared by caprylic acid precipitation and assayed for reactivity by ELISA or competition-ELISA against linear peptides corresponding to the human β1EC2-sequence (AA199-223)[12], and by immuno-fluorescence microscopy with human embryonic kidney (HEK)293 cells stably expressing 0.4 pmol β1-AR/mg membrane protein (HEKβ1-cells). Specificity of the anti-β1EC2-abs was confirmed by co-localisation experiments using previously characterised N-terminal rabbit anti-β1-abs. Bound antibodies were detected with appropriate species-specific secondary antibodies (Dianova, Hamburg, Germany; anti-rabbit-, or anti-rat-Fab2, conjugated to Cy2 or Cy3). Calibrated rat-IgG (Dianova) served to quantify specific IgG-antibodies.
Fig 2 Study protocol and cardioprotection with cyclic β1EC2-peptides. Flow charts of the (A) prevention- and (E) therapy-study with β1EC2-mimicking peptides in the rat. Numbers given refer to animal-numbers in the respective study-groups. Immunisation with β1EC2/GST-FP (or 0.9% NaCl for controls) was started at t = 0. […] Titers were measured before and 24h after CP-injection. […] For better readability error-bars are not shown in the graph. […]

[1] = system: β1EC2-specific memory B-cells; assay: Flow cytometric detection of β1EC2-specific memory B-cells; assay type: in vivo, Lewis/CrlBR rats; settings: Fig. 5K and L
Experimental: (c) For flow cytometric detection of β 1 EC2-specific memory B-cells, splenocytes (1.5x10^8 cells per staining, 2x10^7 cells/ ml in PBS/0.1% BSA/0.02% NaN3) were first labelled with anti-rat IgG(Fc) PE (Jackson Immunoresearch, West Grove, USA) followed by three washings and a blocking step using normal rat serum plus GST (1:500 and 2 μg/ ml, respectively). After another washing step, OX-33 FITC (BD, Heidelberg, Germany, 0.1 μg/ml) and DyLight649-labelled GST/β1EC2-FP (0.2 μg/ml) were added. All incubations were carried out for 15 min on ice and in the dark. Finally, the cells were washed three times and analysed on a FACS-Calibur (BD, Heidelberg, Germany) and FlowJo Software (Tree Star, Ashland, USA) was used to analyse the data.
Fig 5 Immunology of cyclic β1EC2-peptides: fate of β1EC2-specific T- and B-cells. (A) Titer-course of anti-β1EC2-abs in β1EC2-CP-treated rats during the first 6 months of the prevention-study before and 24h after cyclopeptide-injection. Time-points of antigen-boosts are indicated by (red) lines, time-points of CP-injections by (green) arrows. For better readability error-bars are not shown in the graph. (B) Pre-experiments (antigenic recall-assays) performed with CD4^+ T-cells prepared from spleens of GST/β1EC2 fusion-protein (FP)-immunised untreated (n = 3, black) vs. 0.9%NaCl-injected control rats (n = 3, white). […]

## CC(C)[C@@H]1NC(=O)[C@H](Cc2ccccc2)NC(=O)[C@H](CC(=O)O)NC(=O)[C@H](CS)NC(=O)[C@H](CS)NC(=O)[C@H](CCCCN)NC(=O)[C@@H]2CCCN2C(=O)[C@H](CC(=O)O)NC(=O)[C@H](CC(N)=O)NC(=O)[C@H](Cc2ccc(O)cc2)NC(=O)[C@H](CS)NC(=O)[C@H](CCCNC(=N)N)NC(=O)[C@H](CCCNC(=N)N)NC(=O)[C@H](C)NC(=O)[C@H](CCC(=O)O)NC(=O)[C@H](CC(=O)O)NC(=O)[C@H](CO)NC(=O)[C@H](CCC(=O)O)NC(=O)[C@H](C)NC(=O)[C@H](CCCNC(=N)N)NC(=O)[C@H](C)NC(=O)[C@H](CCC(N)=O)NC(=O)CNC(=O)[C@H](CCCNC(=N)N)NC(=O)[C@H](CC(N)=O)NC(=O)[C@H]([C@@H](C)O)NC1=O [β1EC2-CP] (cyclo(AESDEARRCYNDPKCCDFVTNRGQAR))
anti-β1EC2-antibodies; after 5 injections, ELISA (Fig. 2B)
  reduction in free anti-β1EC2-abs vs. initial values: > 80%
anti-β1EC2-antibodies; after 9–10 injections, despite monthly antigen-boosts (Fig. 2B)
  anti-β1EC2-titers in % of the initial values: ~10%
[1]
  β1EC2-specific memory B-cells by flow cytometry, in words: complete depletion
